Laboratory results from US11970493B2, “Autotaxin inhibitor compounds” (ILDONG PHARMACEUTICAL CO., LTD., priority 2020, dated 2024).
Counter-ions that a name gives are not always drawn.

Experiments:
hATX/ENPP2 = hATX/ENPP2 (Homo sapiens, UniProt Q13822); assay: hATX/ENPP2 biochemical assay using 16:0-LPC as substrate (Amplex Red/choline oxidase/HRP fluorescence); conditions: hENPP2 2.5 nM, LPC (16:0) substrate
In short: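 Enzyme preincubated with compounds 15 min at room temperature in 50 mM Tris-HCl pH 8.0, 140 mM NaCl, 5 mM CaCl2, 0.01% Triton X-100. Reaction started with 80 μM LPC (16:0) stock plus Amplex Red/choline oxidase/HRP mix; fluorescence (ex 530/em 590 nm) read kinetically. IC50 from slope between 60 and 70 min.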

[1] = test system: LPA 18:2 level in mouse plasma; assay: In vitro LPA assay, reduction of LPA 18:2 level in mouse plasma (LC-MS/MS); assay type: biochemical; conditions: 2 hr at 37° C., LPA 18:2 reduction
Experimental: (§1) Autotaxin (ATX) plays an important role in lysophosphatidic acid (LPA) signaling. An in vitro LPA assay was conducted to determine IC50 values of the test compounds on reduction of LPA 18:2 level in rat or mouse plasma. This example describes the assay data (IC50 value ranges) of exemplary compounds from LPA assays using mouse and rat plasma. Compound GPLG-1690 was assayed as a reference compound.
(§2) The 10 mM DMSO stock solutions of test compounds and 4-fold serial dilutions of the test compounds were prepared at various concentrations. The diluted solutions of the compounds were diluted with 1×PBS (pH 7.5) buffer. 38 μL of rat or mouse plasma samples were mixed with 2 μL of the diluted solutions of the compounds or 2% DMSO solutions in 96-well plate (final 0.1% DMSO). After incubating for 2 hr at 37° C., 120 μL MeOH containing IS (250 ng/mL of LPA 17:0) was added to each well. Mixture was vortexed for 1 min, and then centrifuged for 30 min (4000 rpm, 4° C.). 100 μL supernatant was transferred to a 96-well plate containing 100 μL pure water and the plate was shaken for 10 min. 5 μL supernatant was injected into LC-MS/MS system. No calibration curve will be prepared for LPA 18:2 and all quantifications were performed based on peak area ratios (LPA 18:2/LPA 17:0). For each concentration of compound LPA data were expressed as percentage of reduction (% reduction) using the formula. 100−[((LPA ratio-LPA ratio in control sample after 0 hr incubation)/(LPA ratio in control sample after 2 hr incubation—LPA ratio in control sample after 0 hr incubation))*100]. Data

[2] = test system: LPA 18:2 level in rat plasma; assay: In vitro LPA assay, reduction of LPA 18:2 level in rat plasma (LC-MS/MS); assay type: biochemical; conditions: 2 hr at 37° C., LPA 18:2 reduction
Experimental: as §1, §2

Row | SMILES | IC50 (hATX/ENPP2) | IC50 [1] | IC50 [2]
1 | CCc1nc2ccc(-c3cnc(N4CC(C(=O)N5CCC5)C4)nc3)cn2c1N(C)c1nc(-c2ccc(F)cc2)c(C#N)s1 [Compound 125, 2-((6-(2-(3-(azetidine-1-carbonyl)azetidin-1-yl)pyrimidin-5-yl)-2-ethylimidazo[1,2-a]pyridin-3-yl)(methyl)amino)-4-(4-fluorophenyl)thiazole-5-carbonitrile] | 20 to 200 nM | 200 to 800 nM | ≤ 200 nM
2 | CCc1nc2ccc(-c3cnc(N4CCN(C(=O)N5CCCC5)CC4)nc3)cn2c1N(C)c1nc(-c2ccc(F)cc2)c(C#N)s1 [Compound 42, 2-((2-ethyl-6-(2-(4-(pyrrolidine-1-carbonyl)piperazin-1-yl)pyrimidin-5-yl)imidazo[1,2-a]pyridin-3-yl)(methyl)amino)-4-(4-fluorophenyl)thiazole-5-carbonitrile] | ≤ 20 nM | 200 to 800 nM | 200 to 800 nM
3 | CCc1nc2ccc(-c3cnc(N4CCN(C(=O)C5CN(C)C5)CC4)nc3)cn2c1N(C)c1nc(-c2ccc(F)cc2)c(C#N)s1 [79 (hydrochloride salt)] | ≤ 20 nM | 200 to 800 nM | ≤ 200 nM
4 | CCc1nc2ccc(-c3ccc(N4CCC(C(=O)N5CCCCC5)CC4)nc3)cn2c1N(C)c1nc(-c2ccc(F)cc2)c(C#N)s1 [Compound 121, 2-((2-ethyl-6-(6-(4-(piperidine-1-carbonyl)piperidin-1-yl)pyridin-3-yl)imidazo[1,2-a]pyridin-3-yl)(methyl)amino)-4-(4-fluorophenyl)thiazole-5-carbonitrile] | 20 to 200 nM | 200 to 800 nM | ≤ 200 nM
5 | CCc1nc2ccc(-c3ccc(N4CCN(C(=O)C5(CO)CC5)CC4)nc3)cn2c1N(C)c1nc(-c2ccc(F)cc2)c(C#N)s1 [Compound 93, 2-((2-ethyl-6-(6-(4-(1-(hydroxylmethyl)cyclopropane-1-carbonyl)piperazin-1-yl)pyridin-3-yl)imidazo[1,2-a]pyridin-3-yl) (methyl)amino)-4-(4-fluorophenyl)thiazole-5-carbonitrile] | ≤ 20 nM | 200 to 800 nM | ≤ 200 nM
6 | CCc1nc2ccc(-c3ccc(C(=O)N4CCCC4)nc3)cn2c1N(C)c1nc(-c2ccc(F)cc2)c(C#N)s1 [Compound 87, 2-((2-ethyl-6-(6-(pyrrolidine-1-carbonyl)pyridin-3-yl)imidazo[1,2-a]pyridin-3-yl)(methyl)amino)-4-(4-fluorophenyl)thiazole-5-carbonitrile] | 20 to 200 nM | 200 to 800 nM | 200 to 800 nM
7 | CCc1nc2ccc(-c3ccc(N4CC(NC5(CO)CC5)C4)nc3)cn2c1N(C)c1nc(-c2ccc(F)cc2)c(C#N)s1 [Compound 109, 2-((2-ethyl-6-(6-(3-((1-(hydroxymethyl)cyclopropyl)amino)azetidin-1-yl)pyridin-3-yl)imidazo[1,2-a]pyridin-3-yl)(methyl)amino)-4-(4-fluorophenyl)thiazole-5-carbonitrile] | 20 to 200 nM | 200 to 800 nM | ≤ 200 nM
8 | CCc1nc2ccc(-c3cnc(N4CCC(C(=O)N5CCOCC5)CC4)nc3)cn2c1N(C)c1nc(-c2ccc(F)cc2)c(C#N)s1 [Compound 127, 2-((2-ethyl-6-(2-(4-(morpholine-4-carbonyl)piperidin-1-yl)pyrimidin-5-yl)imidazo [1,2-a]pyridin-3-yl)(methyl)amino)-4-(4-fluorophenyl)thiazole-5-carbonitrile] | ≤ 20 nM | 200 to 800 nM | ≤ 200 nM
9 | CCc1nc2ccc(-c3cnc(N4CCN(CC(=O)N5CC[C@H](O)C5)CC4)nc3)cn2c1N(C)c1nc(-c2ccc(F)cc2)c(C#N)s1 [46 (hydrochloride salt), (S)-2-((2-ethyl-6-(2-(4-(2-(3-hydroxypyrrolidin-1-yl)-2-oxoethyl)piperazin-1-yl)pyrimidin-5-yl)imidazo[1,2-a]pyridin-3-yl)(methyl)amino)-4-(4-fluorophenyl)thiazole-5-carbonitrile] |  | 200 to 800 nM | 200 to 800 nM
